One assay deals with T1, B2 bradykinin receptor (Rattus norvegicus, UniProt P25023).
T1 sequence (P25023 whole entry): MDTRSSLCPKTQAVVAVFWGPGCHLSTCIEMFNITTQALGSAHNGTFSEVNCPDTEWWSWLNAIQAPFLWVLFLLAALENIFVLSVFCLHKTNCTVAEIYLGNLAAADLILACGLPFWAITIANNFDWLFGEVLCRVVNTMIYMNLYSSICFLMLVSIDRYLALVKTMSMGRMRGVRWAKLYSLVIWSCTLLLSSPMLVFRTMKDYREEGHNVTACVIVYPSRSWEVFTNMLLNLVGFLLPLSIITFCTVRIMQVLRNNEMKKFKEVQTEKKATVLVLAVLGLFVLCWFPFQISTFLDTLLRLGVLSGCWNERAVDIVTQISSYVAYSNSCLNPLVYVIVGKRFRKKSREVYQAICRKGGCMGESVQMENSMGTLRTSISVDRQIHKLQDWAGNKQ
The assay can be described thus: In vitro binding affinity against Bradykinin receptor B2 in rat NG 108-15 neuroblastoma-glioma hybrid cell membranes using [3H]BK binding assay.

Assay [1] has as its target Substance-P receptor (Rattus norvegicus, UniProt P14600). Description: In vitro binding affinity against Tachykinin receptor 1 in rat whole forebrain membranes using [3H][Sar9Met(O2)]-SP binding assay. Type of assay: cell membranes, Membrane.
The target of assay [2] is T2, Gastrin/cholecystokinin type B receptor (Mus musculus, UniProt P56481).
T2 sequence (P56481 whole entry): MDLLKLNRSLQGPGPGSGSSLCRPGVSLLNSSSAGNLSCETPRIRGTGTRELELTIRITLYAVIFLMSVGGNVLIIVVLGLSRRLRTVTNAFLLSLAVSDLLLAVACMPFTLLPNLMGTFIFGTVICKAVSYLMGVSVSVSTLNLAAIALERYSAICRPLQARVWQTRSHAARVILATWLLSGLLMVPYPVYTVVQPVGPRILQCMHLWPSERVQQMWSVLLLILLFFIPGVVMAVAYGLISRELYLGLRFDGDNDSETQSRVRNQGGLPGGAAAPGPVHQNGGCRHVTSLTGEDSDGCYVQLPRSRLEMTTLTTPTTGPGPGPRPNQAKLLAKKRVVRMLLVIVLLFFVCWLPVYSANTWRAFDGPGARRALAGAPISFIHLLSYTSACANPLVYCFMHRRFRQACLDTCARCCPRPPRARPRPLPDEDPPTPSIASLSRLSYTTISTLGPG
Description: In vitro binding affinity against Cholecystokinin type B receptor in mouse cerebral cortical membranes using [125I]Tyr(SO3H)27]-CCK-8 binding assay. It is filed as cell membranes.

For assay [3], the target named is Substance-P receptor (Cavia porcellus, UniProt P30547). The assay can be described thus: In vitro binding affinity against Tachykinin receptor 1 in guinea pig ileum using organ bath assay. Type of assay: tissue-based.
Chain of Substance-P receptor (Cavia porcellus, UniProt P30547) (P30547 whole entry): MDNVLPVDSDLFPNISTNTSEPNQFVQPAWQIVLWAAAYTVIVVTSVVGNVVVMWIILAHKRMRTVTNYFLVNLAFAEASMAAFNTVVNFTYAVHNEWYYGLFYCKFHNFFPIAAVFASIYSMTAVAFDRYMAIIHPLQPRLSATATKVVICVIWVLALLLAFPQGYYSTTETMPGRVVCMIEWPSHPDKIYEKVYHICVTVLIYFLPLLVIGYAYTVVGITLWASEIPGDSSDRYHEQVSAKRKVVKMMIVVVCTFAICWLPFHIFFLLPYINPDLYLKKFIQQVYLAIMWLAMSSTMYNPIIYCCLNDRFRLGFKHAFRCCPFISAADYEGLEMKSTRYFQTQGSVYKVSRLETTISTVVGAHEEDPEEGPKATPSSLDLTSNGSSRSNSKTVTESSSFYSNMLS

A value given as a limit tells only on which side of the number the result lay.

Chain of Substance-P receptor (Rattus norvegicus, UniProt P14600) (P14600 whole entry): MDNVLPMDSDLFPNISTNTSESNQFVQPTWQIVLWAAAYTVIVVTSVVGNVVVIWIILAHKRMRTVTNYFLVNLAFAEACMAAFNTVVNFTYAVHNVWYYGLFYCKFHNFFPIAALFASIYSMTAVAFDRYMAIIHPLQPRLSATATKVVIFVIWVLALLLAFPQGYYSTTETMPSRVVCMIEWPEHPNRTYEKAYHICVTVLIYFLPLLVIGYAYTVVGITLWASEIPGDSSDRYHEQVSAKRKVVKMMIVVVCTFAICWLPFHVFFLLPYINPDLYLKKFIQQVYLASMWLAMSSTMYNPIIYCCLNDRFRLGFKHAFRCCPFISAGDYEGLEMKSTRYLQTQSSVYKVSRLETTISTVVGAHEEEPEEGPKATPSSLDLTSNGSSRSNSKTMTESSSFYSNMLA

Broadly, the IC50 is the midpoint of a concentration-inhibition curve. A high value points to weaker potency. Regarding `CSCCNS(=O)(=O)c1ccc(N/N=C(\S)N2CCC[C@@H]2C(=O)NCc2ccccc2)c([N+](=O)[O-])c1`, the IC50 on B2 bradykinin receptor and at Substance-P receptor [1] was greater than 100 µM throughout.
`O=C(O)CCCNS(=O)(=O)c1ccc(N/N=C(/S)NCCc2c[nH]c3ccccc23)c([N+](=O)[O-])c1`: the figures for the IC50 (at B2 bradykinin receptor; in assay [2]) were greater than 100 µM and 11 µM, respectively.
As for `O=C(O)c1ccc(NC(=S)NNc2ccc(S(=O)(=O)NCCc3c[nH]c4ccccc34)cc2[N+](=O)[O-])cc1`, the results for the IC50 (at B2 bradykinin receptor; in assay [2]) were greater than 100 µM and 24 µM, respectively.
For the molecule `O=C(O)CNS(=O)(=O)c1ccc(NNC(=S)NCCc2c[nH]c3ccccc23)c([N+](=O)[O-])c1`, the IC50 at B2 bradykinin receptor was greater than 100 µM; in assay [2], 46 µM.
Turning to `O=C(O)c1ccccc1NS(=O)(=O)c1ccc(N/N=C(/S)NCCc2c[nH]c3ccccc23)c([N+](=O)[O-])c1`, the IC50 was greater than 100 µM on B2 bradykinin receptor and 4.5 µM in assay [2].
Take `O=C(O)c1ccc(NS(=O)(=O)c2ccc(N/N=C(/S)NCCc3c[nH]c4ccccc34)c([N+](=O)[O-])c2)cc1`: the IC50 on B2 bradykinin receptor is greater than 100 µM; in assay [2] it was 10 µM.
`O=C(O)c1cccc(NS(=O)(=O)c2ccc(NNC(=S)NCCc3c[nH]c4ccccc34)c([N+](=O)[O-])c2)c1`: the IC50 was greater than 100 µM at B2 bradykinin receptor and 3.6 µM in assay [2].
`CSCCNS(=O)(=O)c1ccc(N/N=C(\S)N2CCC[C@H]2C(=O)NCc2ccccc2)c([N+](=O)[O-])c1`: the IC50 on B2 bradykinin receptor and at Substance-P receptor [1] was greater than 100 µM throughout.
In the case of `O=C(O)c1cccc(N(Cc2ccccc2)S(=O)(=O)c2ccc(NNC(=S)NCCc3c[nH]c4ccccc34)c([N+](=O)[O-])c2)c1`, the IC50 is greater than 100 µM on B2 bradykinin receptor and 4 µM in assay [2].
In the case of `O=C(O)CN(Cc1ccccc1)S(=O)(=O)c1ccc(N/N=C(/S)NC(c2ccccc2)c2ccccc2)c([N+](=O)[O-])c1`, the IC50 at B2 bradykinin receptor was determined as 0.41 µM; in assay [2], 1.9 µM.
Turning to `CSCCNS(=O)(=O)c1ccc(N/N=C(\S)N2CCC[C@H]2C(=O)NC(c2ccccc2)c2ccccc2)c([N+](=O)[O-])c1`, the IC50 is greater than 100 µM at B2 bradykinin receptor and 0.98 µM on Substance-P receptor [3].
For the molecule `O=C(O)CN(CCc1ccccc1)S(=O)(=O)c1ccc(N/N=C(/S)NCCc2c[nH]c3ccccc23)c([N+](=O)[O-])c1`, the 50% inhibitory concentration (IC50) at B2 bradykinin receptor was greater than 100 µM; in assay [2], 6 µM.
Turning to `O=C(O)CN(Cc1ccccc1)S(=O)(=O)c1ccc(NNC(=S)NCCc2c[nH]c3ccccc23)c([N+](=O)[O-])c1`, the IC50 is greater than 100 µM on B2 bradykinin receptor and 1.8 µM in assay [2].
For the molecule `O=C(NC(c1ccccc1)c1ccccc1)[C@H]1CCCN1/C(S)=N/Nc1ccccc1[N+](=O)[O-]`, the results for the IC50 on B2 bradykinin receptor, on Substance-P receptor [3] and on Substance-P receptor [1] were greater than 100 µM, 2.31 µM and greater than 100 µM, respectively.
Turning to `O=C(O)CCN(Cc1ccccc1)S(=O)(=O)c1ccc(NNC(=S)NCCc2c[nH]c3ccccc23)c([N+](=O)[O-])c1`, the figures for the IC50 (at B2 bradykinin receptor; in assay [2]) were greater than 100 µM and 0.51 µM, respectively.
Take `O=C(O)CCNS(=O)(=O)c1ccc(N/N=C(/S)NCCc2c[nH]c3ccccc23)c([N+](=O)[O-])c1`: the half-inhibitory concentration (IC50) at B2 bradykinin receptor is greater than 100 µM; in assay [2] it was 24 µM.
Regarding `CSCCNS(=O)(=O)c1ccc(N/N=C(\S)N2CCC[C@@H]2C(=O)NC(c2ccccc2)c2ccccc2)c([N+](=O)[O-])c1`, the IC50 on B2 bradykinin receptor was greater than 100 µM; at Substance-P receptor [3], 7.93 µM.
Regarding `O=C(O)CN(CCCc1ccccc1)S(=O)(=O)c1ccc(N/N=C(/S)NCCc2c[nH]c3ccccc23)c([N+](=O)[O-])c1`, the half-maximal inhibitory concentration (IC50) is greater than 100 µM at B2 bradykinin receptor and 6 µM in assay [2].
`O=C(NC(c1ccccc1)c1ccccc1)[C@@H]1CCCN1/C(S)=N/Nc1ccccc1[N+](=O)[O-]`: the IC50 was greater than 100 µM on B2 bradykinin receptor, 1.67 µM on Substance-P receptor [3] and greater than 100 µM on Substance-P receptor [1].
As for `O=C(O)CCCN(Cc1ccccc1)S(=O)(=O)c1ccc(N/N=C(/S)NCCc2c[nH]c3ccccc23)c([N+](=O)[O-])c1`, the IC50 at B2 bradykinin receptor is greater than 100 µM; in assay [2], 2.43 µM.
For `O=C(O)c1cccc(NC(=S)NNc2ccc(S(=O)(=O)NCCc3c[nH]c4ccccc34)cc2[N+](=O)[O-])c1`, the IC50 at B2 bradykinin receptor is greater than 100 µM; in assay [2], 31 µM.
On Substance-P receptor [3], `COc1ccccc1CN[C@H]1CCCN[C@H]1c1ccccc1` [CP-99994] gave a 50% inhibitory concentration (IC50) of 0.0029 µM.

Source of the values: ChEMBL document CHEMBL1134223, “Design of non-peptide CCK2 and NK1 peptidomimetics using 1-(2-nitrophenyl)thiosemicarbazide as a novel common scaffold” (Bioorg Med Chem Lett, 2001).
